Laboratory results from paper PMC3510435 (Febs Letters, 2012).

Assays:
[1] = biological target: T1, APH(3′)-IIIa (aminoglycoside phosphotransferase(3′)-IIIa) (Enterococcus faecalis, UniProt P0A3Y5); assay: rapid quench flow, total ADP by HPLC; type: biochemical; conditions: 20 μM ADP added together with 20 μM ATP, 5 μM enzyme, 100 μM KanA, 25 °C, pH 7.5; competes with ATP for E·KanA; also the reaction product
T1 construct: gene aphA; recombinant, N-terminal 6His-tag kept (pET15b), E. coli BL21(DE3)

[2] = biological target: T1, APH(3′)-IIIa (aminoglycoside phosphotransferase(3′)-IIIa); assay: quench flow and coupled-assay stopped flow, ADP production; type: biochemical; conditions: 100 μM KanA, 200 μM ATP, 0.2 μM enzyme, 25 °C, pH 7.5; KanA also binds the E·ADP complex (uncompetitive-type abortive complex)

T1 sequence (P0A3Y5 whole entry): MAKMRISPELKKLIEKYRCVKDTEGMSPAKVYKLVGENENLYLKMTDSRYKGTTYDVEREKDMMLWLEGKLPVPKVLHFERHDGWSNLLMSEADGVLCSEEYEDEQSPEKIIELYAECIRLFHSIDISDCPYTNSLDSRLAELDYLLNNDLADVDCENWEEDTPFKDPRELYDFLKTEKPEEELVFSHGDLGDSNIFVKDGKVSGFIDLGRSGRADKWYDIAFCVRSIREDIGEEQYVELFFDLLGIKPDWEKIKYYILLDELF

Row | SMILES | % reduction of kss and Aburst [1] | quench flow and coupled-assay stopped flow, ADP production [2]
1 | Nc1ncnc2c1ncn2[C@@H]1O[C@H](COP(=O)(O)OP(=O)(O)O)[C@@H](O)[C@H]1O [ADP] | ~ 50% | –
2 | NC[C@H]1O[C@H](O[C@H]2[C@H](O)[C@@H](O[C@H]3O[C@H](CO)[C@@H](O)[C@H](N)[C@H]3O)[C@H](N)C[C@@H]2N)[C@H](O)[C@@H](O)[C@@H]1O [kanamycin A] | – | The initial kss determined by the two methods were identical
